Reference: PubChem BioAssay AID1963963 (Molecular Pharmacology Branch, DTP, NCI, 2024)
pIC50: −log10 of the molar value.

Tested on: 958667-338-R-J2-PDC tumor spheroids viability
Assay: Anticancer human tumor 958667-338-R-J2-PDC patient-derived colon adenocarcinoma cell line growth inhibition [PI3K]
Conditions: spheroids with HUVEC and MSC; for pIC50: curve of first compound; for viability, T/C: stronger effect = lower value
In short: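 Stroma-containing spheroids: tumor line, pooled-donor HUVEC, hMSC. Treatments: targeted agents with PI3K inhibitors. Dosing: clinically relevant, half-log spacing, 10 microM ceiling without known Cmax. Read-out: cell viability.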

[1] = second compound 0.0316 µM, first compound 0.0316 µM
[2] = second compound 0.0316 µM, first compound 0.1 µM
[3] = second compound 0.0316 µM, first compound 0.316 µM
[4] = second compound 0.0316 µM, first compound 1 µM
[5] = second compound 0.0316 µM, first compound 3.16 µM
[6] = second compound 0.0316 µM, first compound 10 µM
[7] = second compound 0.1 µM, first compound 0.0316 µM
[8] = second compound 0.1 µM, first compound 0.1 µM
[9] = second compound 0.1 µM, first compound 0.316 µM
[10] = second compound 0.1 µM, first compound 1 µM
[11] = second compound 0.1 µM, first compound 3.16 µM
[12] = second compound 0.1 µM, first compound 10 µM
[13] = second compound 0.316 µM, first compound 0.0316 µM
[14] = second compound 0.316 µM, first compound 0.1 µM
[15] = second compound 0.316 µM, first compound 0.316 µM
[16] = second compound 0.316 µM, first compound 1 µM
[17] = second compound 0.316 µM, first compound 3.16 µM
[18] = second compound 0.316 µM, first compound 10 µM
[19] = second compound 1 µM, first compound 0.0316 µM
[20] = second compound 1 µM, first compound 0.1 µM
[21] = second compound 1 µM, first compound 0.316 µM
[22] = second compound 1 µM, first compound 1 µM
[23] = second compound 1 µM, first compound 3.16 µM
[24] = second compound 1 µM, first compound 10 µM
[25] = second compound 3.16 µM, first compound 0.0316 µM
[26] = second compound 3.16 µM, first compound 0.1 µM
[27] = second compound 3.16 µM, first compound 0.316 µM
[28] = second compound 3.16 µM, first compound 1 µM
[29] = second compound 3.16 µM, first compound 3.16 µM
[30] = second compound 3.16 µM, first compound 10 µM
[31] = second compound 10 µM, first compound 0.0316 µM
[32] = second compound 10 µM, first compound 0.1 µM
[33] = second compound 10 µM, first compound 0.316 µM
[34] = second compound 10 µM, first compound 1 µM
[35] = second compound 10 µM, first compound 3.16 µM
[36] = second compound 10 µM, first compound 10 µM
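Also: spheroids exposed to compounds for seven days before readout.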

How did the pIC50 (second compound 0.0316 µM) turn out when `CC(Cn1ccc(-c2ccc(C#N)c(Cl)c2)n1)NC(=O)c1cc(C(C)O)[nH]n1` (stereo unspecified) + Cc1nc(NC(=O)N2CCCC2C(N)=O)sc1-c1ccnc(C(C)(C)C(F)(F)F)c1 was run?
Its pIC50 is less than 5.00.

What about the pIC50 (second compound 0.1 µM) of the same compound?
The pIC50 was less than 5.00.

And the pIC50 (second compound 0.316 µM)?
Its pIC50 is less than 5.00.

And the pIC50 (second compound 1 µM)?
Its pIC50 is less than 5.00.

What about the pIC50 (second compound 3.16 µM) of the same compound?
The pIC50 was less than 5.00.

What about the pIC50 (second compound 10 µM) of the same compound?
The pIC50 was less than 5.00.

What about the viability, T/C [1] of the same compound?
The viability, T/C was 78.8%.

And the viability, T/C [2]?
Its viability, T/C is 98.7%.

And the viability, T/C [3]?
The viability, T/C was 84.2%.

And the viability, T/C [4]?
The viability, T/C was 114%.

And the viability, T/C [5]?
Its viability, T/C is 102%.

And the viability, T/C [6]?
The viability, T/C was 107%.

And the viability, T/C [7]?
Its viability, T/C is 86.8%.

And the viability, T/C [8]?
Its viability, T/C is 92.8%.

And the viability, T/C [9]?
Its viability, T/C is 97.9%.

And the viability, T/C [10]?
Its viability, T/C is 81.9%.

What about the viability, T/C [11] of the same compound?
Its viability, T/C is 91.9%.

What about the viability, T/C [12] of the same compound?
Its viability, T/C is 74.8%.

And the viability, T/C [13]?
The viability, T/C was 106%.

What about the viability, T/C [14] of the same compound?
The viability, T/C was 87.8%.

What about the viability, T/C [15] of the same compound?
Its viability, T/C is 90.8%.

And the viability, T/C [16]?
The viability, T/C was 94.5%.

What about the viability, T/C [17] of the same compound?
The viability, T/C was 86.3%.

And the viability, T/C [18]?
The viability, T/C was 92.3%.

What about the viability, T/C [19] of the same compound?
Its viability, T/C is 62.9%.

And the viability, T/C [20]?
The viability, T/C was 65.9%.

What about the viability, T/C [21] of the same compound?
Its viability, T/C is 95.9%.

And the viability, T/C [22]?
The viability, T/C was 72.8%.

What about the viability, T/C [23] of the same compound?
Its viability, T/C is 92.7%.

What about the viability, T/C [24] of the same compound?
Its viability, T/C is 80%.

What about the viability, T/C [25] of the same compound?
Its viability, T/C is 76.3%.

And the viability, T/C [26]?
Its viability, T/C is 55%.

What about the viability, T/C [27] of the same compound?
Its viability, T/C is 62.8%.

And the viability, T/C [28]?
The viability, T/C was 68.4%.

And the viability, T/C [29]?
Its viability, T/C is 85.4%.

And the viability, T/C [30]?
The viability, T/C was 72.6%.

What about the viability, T/C [31] of the same compound?
Its viability, T/C is 52.5%.

And the viability, T/C [32]?
The viability, T/C was 59.7%.

What about the viability, T/C [33] of the same compound?
Its viability, T/C is 47.7%.

And the viability, T/C [34]?
Its viability, T/C is 59.7%.

And the viability, T/C [35]?
Its viability, T/C is 72%.

What about the viability, T/C [36] of the same compound?
The viability, T/C was 50.5%.

How did the pIC50 (second compound 0.0316 µM) turn out when `Cn1ncc(Cl)c1-c1cc(C(=O)NC(CN)Cc2cccc(F)c2)sc1Cl` (stereo unspecified) + Cc1nc(NC(=O)N2CCCC2C(N)=O)sc1-c1ccnc(C(C)(C)C(F)(F)F)c1 was run?
The pIC50 was 5.61.

And the pIC50 (second compound 0.1 µM)?
Its pIC50 is 5.69.

And the pIC50 (second compound 0.316 µM)?
Its pIC50 is 5.73.

And the pIC50 (second compound 1 µM)?
The pIC50 was 5.80.

What about the pIC50 (second compound 3.16 µM) of the same compound?
The pIC50 was 5.88.

And the pIC50 (second compound 10 µM)?
Its pIC50 is greater than 7.50.

What about the viability, T/C [1] of the same compound?
The viability, T/C was 88.2%.

What about the viability, T/C [2] of the same compound?
The viability, T/C was 84.3%.

And the viability, T/C [3]?
The viability, T/C was 89.2%.

And the viability, T/C [4]?
The viability, T/C was 70.5%.

What about the viability, T/C [5] of the same compound?
Its viability, T/C is 44.7%.

And the viability, T/C [6]?
Its viability, T/C is 37.2%.

And the viability, T/C [7]?
Its viability, T/C is 84.4%.

And the viability, T/C [8]?
Its viability, T/C is 81.7%.

What about the viability, T/C [9] of the same compound?
Its viability, T/C is 97.5%.

What about the viability, T/C [10] of the same compound?
The viability, T/C was 69.5%.

And the viability, T/C [11]?
Its viability, T/C is 41.3%.

And the viability, T/C [12]?
The viability, T/C was 34.8%.

And the viability, T/C [13]?
The viability, T/C was 71.4%.

What about the viability, T/C [14] of the same compound?
Its viability, T/C is 65.6%.

And the viability, T/C [15]?
Its viability, T/C is 64.6%.

What about the viability, T/C [16] of the same compound?
The viability, T/C was 63.7%.

And the viability, T/C [17]?
The viability, T/C was 39%.

What about the viability, T/C [18] of the same compound?
Its viability, T/C is 26.9%.

What about the viability, T/C [19] of the same compound?
The viability, T/C was 71.7%.

What about the viability, T/C [20] of the same compound?
Its viability, T/C is 80.9%.

And the viability, T/C [21]?
Its viability, T/C is 57.3%.

And the viability, T/C [22]?
The viability, T/C was 63.7%.

And the viability, T/C [23]?
The viability, T/C was 31.2%.

And the viability, T/C [24]?
Its viability, T/C is 24.9%.

What about the viability, T/C [25] of the same compound?
Its viability, T/C is 66.7%.

What about the viability, T/C [26] of the same compound?
Its viability, T/C is 64.4%.

And the viability, T/C [27]?
Its viability, T/C is 72%.

And the viability, T/C [28]?
The viability, T/C was 56%.

What about the viability, T/C [29] of the same compound?
Its viability, T/C is 27.6%.

What about the viability, T/C [30] of the same compound?
Its viability, T/C is 18.1%.

And the viability, T/C [31]?
The viability, T/C was 49.4%.

And the viability, T/C [32]?
Its viability, T/C is 44.7%.

What about the viability, T/C [33] of the same compound?
Its viability, T/C is 46%.

What about the viability, T/C [34] of the same compound?
Its viability, T/C is 41.7%.

What about the viability, T/C [35] of the same compound?
Its viability, T/C is 23.8%.

What about the viability, T/C [36] of the same compound?
The viability, T/C was 15.1%.

With `Cn1nccc1Nc1nccc(-c2ccn(C(CO)c3ccc(Cl)c(F)c3)c(=O)c2)n1` (stereo unspecified) + Cc1nc(NC(=O)N2CCCC2C(N)=O)sc1-c1ccnc(C(C)(C)C(F)(F)F)c1 as the compound, how does the pIC50 (second compound 0.0316 µM) read?
The pIC50 was less than 5.00.

And the pIC50 (second compound 0.1 µM)?
Its pIC50 is less than 5.00.

What about the pIC50 (second compound 0.316 µM) of the same compound?
Its pIC50 is less than 5.00.

What about the pIC50 (second compound 1 µM) of the same compound?
The pIC50 was 5.09.

And the pIC50 (second compound 3.16 µM)?
The pIC50 was 5.44.

What about the pIC50 (second compound 10 µM) of the same compound?
Its pIC50 is 5.80.

What about the viability, T/C [1] of the same compound?
Its viability, T/C is 113%.

And the viability, T/C [2]?
Its viability, T/C is 105%.

What about the viability, T/C [3] of the same compound?
The viability, T/C was 119%.

What about the viability, T/C [4] of the same compound?
The viability, T/C was 101%.

And the viability, T/C [5]?
The viability, T/C was 79.5%.

And the viability, T/C [6]?
Its viability, T/C is 77.2%.

And the viability, T/C [7]?
Its viability, T/C is 137%.

And the viability, T/C [8]?
Its viability, T/C is 98%.

And the viability, T/C [9]?
Its viability, T/C is 97.2%.

What about the viability, T/C [10] of the same compound?
Its viability, T/C is 79.8%.

And the viability, T/C [11]?
Its viability, T/C is 75%.

What about the viability, T/C [12] of the same compound?
The viability, T/C was 71.8%.

And the viability, T/C [13]?
The viability, T/C was 99.6%.

And the viability, T/C [14]?
Its viability, T/C is 92.8%.

And the viability, T/C [15]?
Its viability, T/C is 91.3%.

And the viability, T/C [16]?
The viability, T/C was 72%.

And the viability, T/C [17]?
Its viability, T/C is 82.2%.

And the viability, T/C [18]?
The viability, T/C was 67.4%.

What about the viability, T/C [19] of the same compound?
Its viability, T/C is 101%.

And the viability, T/C [20]?
Its viability, T/C is 85.9%.

What about the viability, T/C [21] of the same compound?
Its viability, T/C is 84.5%.

What about the viability, T/C [22] of the same compound?
The viability, T/C was 68.8%.

What about the viability, T/C [23] of the same compound?
Its viability, T/C is 77.8%.

And the viability, T/C [24]?
Its viability, T/C is 42.1%.

And the viability, T/C [25]?
Its viability, T/C is 65.8%.

And the viability, T/C [26]?
The viability, T/C was 78.8%.

What about the viability, T/C [27] of the same compound?
The viability, T/C was 74.6%.

And the viability, T/C [28]?
The viability, T/C was 90.4%.

What about the viability, T/C [29] of the same compound?
Its viability, T/C is 56.6%.

And the viability, T/C [30]?
The viability, T/C was 4.78%.

And the viability, T/C [31]?
Its viability, T/C is 68%.

And the viability, T/C [32]?
The viability, T/C was 55.8%.

What about the viability, T/C [33] of the same compound?
Its viability, T/C is 67.1%.

What about the viability, T/C [34] of the same compound?
Its viability, T/C is 72.4%.

What about the viability, T/C [35] of the same compound?
The viability, T/C was 26.9%.

What about the viability, T/C [36] of the same compound?
Its viability, T/C is 5.35%.
